Reference: patent publication US11952431B2, “Neutrophil-binding peptides” (YISSUM RESEARCH DEVELOPMENT COMPANY OF THE HEBREW …, priority 2020, dated 2024)

Tests used:
[1] = system: murine neutrophils (HDNs from 4T1-tumor bearing mice); test: Titration of binding to purified HDNs, flow cytometry; parameters: species or system mouse; details: tetramer-SA complex of control peptide
Description: Analysis was performed by flow cytometry.

human neutrophils = test: 16-KFP binding in whole blood; details: healthy donor
Description: (§1) A biotinylated KFP-tetramer multiantigen (designated 16-KFP) was generated in the same manner as the 16-LQI. In whole blood, 16-KFP bound ˜80% of human neutorophils and less than 10% of non-neutrophil WBC (FIG. 15A).

non-neutrophil WBC = test: 16-KFP binding in whole blood; parameters: species or system human; details: healthy donor
Description: as §1

neutrophils [2] = test: Effect of KFP-tetramer / 16-KFP on neutrophil activation (ROS production); assay type: cell-based, human
Description: as §1

neutrophils [3] = test: Effect of KFP-tetramer / 16-KFP on neutrophil viability (microscopy, flow cytometry); assay type: cell-based, human
neutrophils [4] = test: Effect of KFP-tetramer / 16-KFP on neutrophil chemotaxis; assay type: cell-based, human
Description: as §1

CD177 [5] = target: T1, CD177 (Homo sapiens, UniProt Q8N6Q3); test: Pull-down with KFP-tetramer as bait, mass spectrometry; assay type: binding
T1 construct: endogenous in cells; host or cells: human neutrophils from healthy donors, COPD patients and lung cancer patients
T1 sequence (Q8N6Q3 22-408): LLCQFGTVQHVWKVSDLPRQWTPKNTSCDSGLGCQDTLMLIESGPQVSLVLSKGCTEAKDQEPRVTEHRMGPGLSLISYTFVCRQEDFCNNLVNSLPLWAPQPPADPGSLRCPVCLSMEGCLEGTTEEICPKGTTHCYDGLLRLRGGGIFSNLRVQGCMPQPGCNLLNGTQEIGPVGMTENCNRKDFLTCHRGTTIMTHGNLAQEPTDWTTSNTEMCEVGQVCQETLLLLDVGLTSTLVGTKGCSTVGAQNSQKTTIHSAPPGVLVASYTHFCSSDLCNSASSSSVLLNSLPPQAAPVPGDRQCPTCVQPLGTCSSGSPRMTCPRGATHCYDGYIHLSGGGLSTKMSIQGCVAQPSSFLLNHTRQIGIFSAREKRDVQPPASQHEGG
Description: (§2) Similarly, the human CD177 was identified as a binding-partner of the peptides binding to human neutrophils (SEQ ID NOs: 1-8). […] Still, the extent of KFP-tetramer binding and CD177 levels fit well within the correlation plot and support the role of CD177 in mediating the binding of the KFP-tetramer to neutrophils (FIG. 22B).

CD177 [6] = target: T1, CD177; test: Correlation of CD177 expression and KFP-tetramer binding in donors; details: healthy donors, patients with COPD and lung cancer patients
Description: FIGS. 22A-C: (22A) Bar graph of 16-KFP binding and CD177 expression of neutrophils of healthy donors (2, 6, 10), COPD patients (11, 12) and lung cancer patients (13). (22B) Line graph of correlation between CD177 expression and 16-KFP binding in different donors. (22C) Bare graph of binding of 16-KFP to neutrophils with increasing amounts of CD177 blocking antibody.
as §2

| Substance | binding to murine neutrophils [1] | human neutrophils bound (human neutrophils) [%] | non-neutrophil WBC bound (non-neutrophil WBC) | effect on neutrophil activation (ROS production, FIG. 15B) (neutrophils [2]) | effect on neutrophil viability (neutrophils [3]) | effect on chemotactic properties (neutrophils [4]) | binding partner identified (CD177 [5]) | chemoattraction of neutrophils (neutrophils [4]; FIG. 15E) | effect on neutrophil attraction to CXCL2 (neutrophils [4]; FIG. 15F) | correlation between CD177 expression and binding to neutrophils (CD177 [6]) |
| --- | --- | --- | --- | --- | --- | --- | --- | --- | --- | --- |
| 16-KFP: biotinylated KFP-tetramer multiantigen generated in the same manner as 16-LQI; tetramer-SA complex used as control on murine neutrophils [Peptide 16-KFP] | did not show binding | ~80 | less than 10% | no significant effect | no significant effect | no significant effect | CD177 was identified as the binding partner | – | – | – |
| (KFPDLDSRRLPHMSL (SEQ ID NO: 1) Doa-Doa-C)4-(Mpa)-4-Lys2-Lys-beta-Ala-Lys(Biotin)-beta-Ala-OH [KFP tetramer] | – | – | – | no effect | – | – | – | not chemoattractive | no effect | strong positive correlation |
